Results reported in patent publication US10385030B2, “Cationic lipid” (NOF CORPORATION, priority 2015, dated 2019).
Entries after “also recorded” stand apart in the source; their conditions may differ. One block for each compound: values may come before it.

Experiments:
[1] = Particle size and surface potential of MENDs by dynamic light scattering (Experimental Example 1); type: physicochemical
Method: A solution of pDNA encoding luciferase gene and a protamine (manufactured by CALBIOCHEM) solution were diluted with 10 mM HEPES buffer to 0.15 mg/mL and 96.3 μg/mL, respectively. While stirring 0.15 mg/mL pDNA solution (100 μL), 96.3 μg/mL protamine (100 μL) was added dropwise in small portions to prepare an electrostatic complex of protamine and pDNA (N/P ratio=1.0) as a core of the vector.
A lipid solution in ethanol was prepared by mixing 5 mM cationic lipid (Myr-C3M), 5 mM phospholipid (SOPC) and 5 mM cholesterol (Chol) at desired ratios to achieve 330 nmol total lipid in an Eppendorf tube, further adding PEG2000-DSG (1 mM ethanol solution) in an amount corresponding to 3 mol % of the total lipid, and adding ethanol to achieve a total volume of 200 μL. While stirring the lipid solution in a vortex mixer, 200 μL of the nucleic acid electrostatic complex (10 mM HEPES; pH 5.3) prepared in [Experimental Example 1] (1) was quickly added, and thereafter 10 mM HEPES buffer (1.6 mL, adjusted to pH 5.3) was added. Furthermore, 10 mM HEPES buffer (2 mL) adjusted to pH 5.3 was added to dilute the mixture to an ethanol concentration of 5%. The mixture was concentrated to about 50 μL by ultrafiltration using Amicon Ultra 4 (Millipore) under centrifugation conditions (room temperature, 1000 g, 15 min). Thereafter, it was diluted to 4 mL with 100 mM HEPES buffer (adjusted to pH 7.4), and again concentrated by centrifugation (1000 g, 15 min) under room temperature conditions. Thereafter, it was diluted to 4 mL with 10 mM HEPES buffer (pH 7.4), and again concentrated by centrifugation (1000 g, 15 min) under room temperature conditions. Finally, it was diluted with 10 mM HEPES buffer (pH 7.4) to a desired lipid concentration.
pDNA solution (1 mg/mL), 100 mM malic acid buffer (pH 4.0), 5 M aqueous sodium chloride solution and sterilized water were mixed, and a solution having final concentrations of 0.1 mg/mL, 20 mM, 40 mM, respectively, was prepared and used as a DNA solution.
A lipid solution in ethanol was prepared by mixing 5 mM cationic lipid (TS-PZ4C2 or TS-C3M), and 10 mM cholesterol (Chol) at desired ratios to achieve 600 nmol total lipid in a 5 mL tube, further adding PEG2000-DMG (5 mM ethanol solution) in an amount corresponding to 3 mol % of the total lipid, and adding ethanol to achieve a total volume of 200 μL. While stirring the lipid solution in a vortex mixer, the above-mentioned DNA solution (300 μL) was quickly added, after which 20 mM malic acid buffer (pH 4.0, containing 100 mM sodium chloride) (500 μL) was added, and phosphate buffered saline was added to dilute the mixture to the ethanol concentration of 10%. Similar operation was repeated three times and phosphate buffered saline was added to an ethanol concentration of 5%. Thereafter, the mixture was concentrated to about 200 μL by ultrafiltration using Amicon Ultra 15 (Millipore, under centrifugation conditions (room temperature, 2267 rpm, 20 min). Thereafter, it was diluted to 15 ml with phosphate buffered saline, and again concentrated by centrifugation (2267 rpm, 20 min) under conditions of room temperature. Finally, it was diluted with phosphate buffered saline to a desired lipid concentration.
The particle size and the surface potential were measured by the dynamic light scattering method (Zetasizer Nano; Malvern Instruments Ltd.).

[2] = Particle size and surface potential of MENDs by dynamic light scattering (Experimental Example 6); type: physicochemical
Method: Various MENDs were prepared by the ethanol dilution method in [Experimental Example 1] (2), and DOPC was used as a phospholipid. PEG5000-DSG was used as a PEG lipid, and an amount corresponding to 5 mol % of the total lipid was added in Myr-C3M MEND, and an amount corresponding to 10 mol % was added in TS-PZ4C2 MEND.
pDNA solution (1 mg/mL), 100 mM malic acid buffer (pH 4.0), 5 M aqueous sodium chloride solution and sterilized water were mixed, and a solution having a final concentration of 0.1 mg/mL, 20 mM, 40 mM, respectively, was prepared and used as a DNA solution.
A lipid solution in ethanol was prepared by mixing 5 mM cationic lipid (L-PZ4C2, O-PZ4C2), 10 mM cholesterol (Chol), and 10 mM DOPC at desired ratios to achieve 840 nmol total lipid in a 5 mL tube, further adding PEG5000-DSG (1 mM ethanol solution) in an amount corresponding to 5 mol % of the total lipid, and adding ethanol to achieve a total amount of 200 μL (80% ethanol solution) and 20 mM malic acid buffer (pH 4.0). While stirring the lipid solution in a vortex mixer, the above-mentioned DNA solution (200 μL) was quickly added, after which 20 mM malic acid buffer (pH 4.0) (1600 μL) was added, phosphate buffered saline was added, and the mixture was diluted to an ethanol concentration of 8%. Similar operation was repeated three times and phosphate buffered saline was added to an ethanol concentration of 4%. Thereafter, using Amicon Ultra 15 (Millipore), the mixture was concentrated to about 200 μL by ultrafiltration under centrifugation condition (room temperature, 2267 rpm, 30 min). Thereafter, the mixture was diluted with phosphate buffered saline to 15 mL, and concentrated again by centrifugation (2267 rpm, for 30 min) under room temperature conditions. Finally, it was diluted to a desired lipid concentration with phosphate buffered saline.
The particle size and the surface potential were measured by the dynamic light scattering method (Zetasizer Nano).

[3] = compared to DOTAP, DODAP; known from patent document 1; cited from earlier work
4T1 tumor = assay: Gene expression activity (gene delivery into tumor) in vivo (Experimental Example 8); set-up: species or system BALB/c mice; details: MEND encapsulating pDNA, tail vein, 25 mg DNA, 48 hr; FIG. 6
Method: Various MENDs were prepared according to the method described in [Experimental Example 6]. Cancer-carrying mice were produced by subcutaneous administration of a suspension of mouse breast cancer-derived cancer cell line 4T1 cells (1×10^6 cells/mouse) to 6-week-old female BALB/c mice. At 7 days after the subcutaneous transplantation of the cancer cells, the prepared MEND solutions were administered each in an amount corresponding to […] from the tail vein. The mice were euthanized by a cervical spine […] method at 48 hr after the administration, the tumor was isolated and frozen with liquid nitrogen. The tumor was lysed in a Lysis buffer to prepare homogenate. The homogenate was centrifuged at 13,000 rpm, 10 min, 4° C., and the supernatant was collected and used as a measurement sample. The sample solution (20 μL) was mixed with a luciferase substrate (50 μL), and the luciferase activity was measured using Luminescenser-PSN (AB2200 ATTO). In addition, the concentration of the protein in the sample was quantified using a BCA protein assay kit, and the gene expression activity was measured as RLU/mg protein.

[4] = MEND of TS-PZ4C2, cationic lipid:Chol = 7:3, PEG2000-DMG 3 mol %
[5] = MEND of TS-PZ4C2, cationic lipid:Chol = 7:3, PEG5000-DSG 10 mol %
[6] = MEND of TS-C3M, cationic lipid:Chol = 7:3, PEG2000-DMG 3 mol %
[7] = MEND of O-PZ4C2, cationic lipid:DOPC:Chol = 6:1:3, PEG5000-DSG 5 mol %
[8] = MEND of Myr-C3M, cationic lipid:SOPC:Chol = 3:4:3, PEG2000-DSG 3 mol %
[9] = MEND of Myr-C3M, cationic lipid:DOPC:Chol = 3:4:3, PEG5000-DSG 5 mol %
[10] = MEND of L-PZ4C2, cationic lipid:DOPC:Chol = 6:1:3, PEG5000-DSG 5 mol %

Compound: Cc1c(C)c2c(c(C)c1OC(=O)CCC(=O)OCCN1CCN(CCSSCCN3CCN(CCOC(=O)CCC(=O)Oc4c(C)c(C)c5c(c4C)CCC(C)(CCCC(C)CCCC(C)CCCC(C)C)O5)CC3)CC1)CCC(C)(CCCC(C)CCCC(C)CCCC(C)C)O2 (stereo not shown) [TS-PZ4C2]
PdI [1, 4]: 0.041
particle size [1, 4]: 126.8 nm
zeta potential [1, 4]: −7.38 mV
PdI [2, 5]: 0.121
particle size [2, 5]: 104.8 nm
zeta potential [2, 5]: −0.897 mV

Compound: Cc1c(C)c2c(c(C)c1OC(=O)CCC(=O)OCCCN(C)CCSSCCN(C)CCCOC(=O)CCC(=O)Oc1c(C)c(C)c3c(c1C)CCC(C)(CCCC(C)CCCC(C)CCCC(C)C)O3)CCC(C)(CCCC(C)CCCC(C)CCCC(C)C)O2 (stereo not shown) [TS-C3M]
PdI [1, 6]: 0.08
particle size [1, 6]: 141.3 nm
zeta potential [1, 6]: −5.4 mV
nucleic acid delivery efficiency [3]: high nucleic acid delivery efficiency as compared to cationic lipids such as DOTAP, DODAP

Second part, led by results:

PdI [2, 7]: 0.083
particle size [2, 7]: 115.2 nm
zeta potential [2, 7]: −0.294 mV
Compound: CCCCCCCC/C=C\CCCCCCCC(=O)OCCN1CCN(CCSSCCN2CCN(CCOC(=O)CCCCCCC/C=C\CCCCCCCC)CC2)CC1 [O-PZ4C2]
gene delivery expression activity to tumor (luciferase activity, RLU/mg protein) (4T1 tumor): higher gene delivery expression activity to tumor than the lipid membrane structures using the cationic lipids of Comparative Example 1

PdI [1, 8]: 0.188
particle size [1, 8]: 128.3 nm
zeta potential [1, 8]: 1.88 mV
PdI [2, 9]: 0.134
particle size [2, 9]: 113.9 nm
zeta potential [2, 9]: −0.135 mV
Compound: CCCCCCCCCCCCCC(=O)OCCCN(C)CCSSCCN(C)CCCOC(=O)CCCCCCCCCCCCC [Myr-C3M]
nucleic acid delivery efficiency [3]: high nucleic acid delivery efficiency as compared to cationic lipids such as DOTAP, DODAP; also recorded: higher nucleic acid delivery efficiency as compared to conventional cationic lipids such as DOTAP, DODAP

PdI [2, 10]: 0.094
particle size [2, 10]: 108.7 nm
zeta potential [2, 10]: 0.144 mV
Compound: CCCCC/C=C\C/C=C\CCCCCCCC(=O)OCCN1CCN(CCSSCCN2CCN(CCOC(=O)CCCCCCC/C=C\C/C=C\CCCCC)CC2)CC1 [L-PZ4C2]
gene delivery expression activity to tumor (luciferase activity, RLU/mg protein) (4T1 tumor): higher gene delivery expression activity to tumor than the lipid membrane structures using the cationic lipids of Comparative Example 1
